From patent US20100173888A1 (Pfizer Inc, priority 2008, published 2010)

Target: human recombinant H-PGDS (Homo sapiens, UniProt O60760)
Experiment: Slightly modified fluorescence intensity h-PGDS TBA enzyme assay (1:40,000 enzyme, 40 second reaction, 1/2 log dilutions, top concentration typically 10 μM)
Assay type: biochemical
Details: slightly modified assay: 1:40,000 human recombinant H-PGDS
In short: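 Enzyme pre-incubated 10 min at room temperature with inhibitor in 100 mM Trizma pH 8.0, 100 μM MgCl2, 0.1 mg/ml rabbit IgG, 2.5 mM glutathione, 0.5% DMSO; reaction started with 5.0 μM PGH2 and stopped with FeCl2/citric acid. Remaining PGH2 quantified as MDA–TBA fluorescence (ex 530/em 560 nm); IC50 from 4-parameter fit, 11 concentrations in duplicate.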

Sequence of human recombinant H-PGDS (O60760 whole entry): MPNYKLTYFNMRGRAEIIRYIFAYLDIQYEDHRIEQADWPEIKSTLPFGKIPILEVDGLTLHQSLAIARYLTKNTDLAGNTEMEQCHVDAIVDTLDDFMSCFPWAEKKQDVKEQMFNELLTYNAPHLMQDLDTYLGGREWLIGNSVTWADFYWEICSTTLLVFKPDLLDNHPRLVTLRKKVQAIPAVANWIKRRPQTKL

SMILES	IC50 [nM]
CCN1CCN(C(=O)[C@H]2CCC[C@@H](NC(=O)c3ccc(-c4cccc(F)c4)nc3)C2)CC1 (racemic) [Example 41, N-{cis-3-[(4-Ethylpiperazin-1-yl)carbonyl]cyclohexyl}-6-(3-fluorophenyl)nicotinamide]	7.18
O=C(N[C@H]1CCC[C@@H](C(=O)N2CCNCC2)C1)c1ccc(-c2cccc(F)c2)nc1 (relative stereo) [Example 42, 6-(3-Fluorophenyl)-N-[cis-3-(piperazin-1-ylcarbonyl)cyclohexyl]nicotinamide]	10.2

The next lines start with the values.

IC50 [nM]	SMILES
5.76	O=C(NC1CCC(N2CCOCC2)CC1)c1ccc(-c2cccc(F)c2)nc1 (single isomer, unassigned) [Example 50, 6-(3-Fluorophenyl)-N-(4-morpholin-4-ylcyclohexyl)nicotinamide]
97.4	O=C(N[C@H]1CC[C@@H](C(=O)O)CC1)c1ccc(-c2cccc(F)c2)nc1 [Example 66, cis-4-({[6-(3-Fluorophenyl)pyridin-3-yl]carbonyl}amino)cyclohexanecarboxylic acid]
9.26	O=C(NC1CCC(N2CCCOCC2)CC1)c1ccc(-c2cccc(F)c2)nc1 (centres unmarked) [Example 53, 6-(3-Fluorophenyl)-N-[4-(1,4-oxazepan-4-yl)cyclohexyl]nicotinamide]
